From ChEMBL document CHEMBL1201862, “PubChem BioAssay data set” (2004)
Active and inactive are the calls of the source.

Columns and labels:
[1] = target: Ras and Rab interactor 1/Tyrosine-protein kinase ABL1 (Homo sapiens, UniProt P00519+Q13671); assay type: functional;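 further: biochemical TR-FRET dose-response test measuring inhibition of binding between Rin1 and Abl proteins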
[2] = target: Large T antigen (Simian virus 40, UniProt P03070); assay type: functional, Betapolyomavirus macacae;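 further: Confirmatory-stage PubChem screen for compounds that inhibit SV40 T antigen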
Chain of Large T antigen (P03070 whole entry): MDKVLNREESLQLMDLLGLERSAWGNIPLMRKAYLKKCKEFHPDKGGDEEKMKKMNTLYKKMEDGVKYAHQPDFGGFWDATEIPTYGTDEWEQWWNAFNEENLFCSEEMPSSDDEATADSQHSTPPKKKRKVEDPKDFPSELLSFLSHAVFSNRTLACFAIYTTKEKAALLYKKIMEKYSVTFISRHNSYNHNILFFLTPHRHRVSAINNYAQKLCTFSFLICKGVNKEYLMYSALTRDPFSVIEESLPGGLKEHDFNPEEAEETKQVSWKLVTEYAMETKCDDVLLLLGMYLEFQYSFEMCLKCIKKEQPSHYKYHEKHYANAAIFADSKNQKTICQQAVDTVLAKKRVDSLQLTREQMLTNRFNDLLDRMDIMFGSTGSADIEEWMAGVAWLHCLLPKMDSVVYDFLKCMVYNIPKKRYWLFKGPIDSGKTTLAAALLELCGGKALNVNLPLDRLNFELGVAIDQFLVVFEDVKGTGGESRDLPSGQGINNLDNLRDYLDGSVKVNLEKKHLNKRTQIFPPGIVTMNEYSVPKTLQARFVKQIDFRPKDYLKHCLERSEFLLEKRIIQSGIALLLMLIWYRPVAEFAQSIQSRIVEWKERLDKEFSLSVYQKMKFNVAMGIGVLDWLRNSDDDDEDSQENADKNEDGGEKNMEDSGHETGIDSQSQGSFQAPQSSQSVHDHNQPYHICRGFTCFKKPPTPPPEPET

[3] = target: T1, Mitochondrial peptide methionine sulfoxide reductase (Bos taurus, UniProt P54149); assay: Absorbance-based biochemical high throughput dose response assay for activators of Methionine sulfoxide reductase A (MsrA).; assay type: functional
T1 sequence (P54149 whole entry): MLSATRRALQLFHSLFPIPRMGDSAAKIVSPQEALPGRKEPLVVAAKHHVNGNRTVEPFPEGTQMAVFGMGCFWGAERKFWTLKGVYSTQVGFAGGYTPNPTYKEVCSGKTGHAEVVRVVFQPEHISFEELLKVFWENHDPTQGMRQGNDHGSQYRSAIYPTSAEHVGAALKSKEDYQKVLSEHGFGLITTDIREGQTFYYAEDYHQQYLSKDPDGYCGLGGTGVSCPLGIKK

[4] = target: T2, Orexin/Hypocretin receptor type 1 (Homo sapiens, UniProt O43613); assay: Homogeneous Time Resolved Fluorescence (HTRF)-based cell-based high throughput dose response assay for antagonists of the orexin 1 receptor (OX1R; HCRTR1). [Related pubchem assays (depositor defined):AID434989, AID435008, AID463079, AID485270, AID492963, AID492964, AID492965, AID493232, AID504717, AID504718]; assay type: functional
T2 sequence (O43613 whole entry): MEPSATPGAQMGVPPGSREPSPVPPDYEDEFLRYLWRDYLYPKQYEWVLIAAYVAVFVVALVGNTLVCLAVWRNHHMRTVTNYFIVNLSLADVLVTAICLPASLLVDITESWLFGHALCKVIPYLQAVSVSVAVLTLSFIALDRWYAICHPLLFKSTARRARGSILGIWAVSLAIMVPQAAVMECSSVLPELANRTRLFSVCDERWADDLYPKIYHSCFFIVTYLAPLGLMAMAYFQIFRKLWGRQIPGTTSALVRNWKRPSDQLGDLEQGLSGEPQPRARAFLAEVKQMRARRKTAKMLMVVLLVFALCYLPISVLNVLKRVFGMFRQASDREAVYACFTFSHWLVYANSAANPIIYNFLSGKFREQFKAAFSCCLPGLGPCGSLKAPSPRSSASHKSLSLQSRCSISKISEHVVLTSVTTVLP

[5] = target: T2, Orexin/Hypocretin receptor type 1; assay: Fluorescence-based cell-based high throughput dose response assay for antagonists of the orexin 1 receptor (OX1R; HCRTR1). [Related pubchem assays (depositor defined):AID434989, AID435008, AID463079, AID485270, AID492963, AID492964, AID492965, AID493232, AID504717, AID504718]; assay type: functional
[6] = test system: CHO-K1; assay: (§1) Counterscreen for antagonists of the orexin 1 receptor (OX1R; HCRTR1): Homogeneous time resolved fluorescence (HTRF)-based cell-based dose response assay to identify antagonists of the parental CHO-K1 cell line. [Related pubchem assays (depositor defined):AID434989, AID435008, AID463079, AID485270, AID492963, AID492964, AID492965, AID493232, AID504699, AID504701]; assay type: functional; conditions: Cricetulus griseus
[7] = target: T3, Orexin receptor type 2 (Homo sapiens, UniProt O43614); assay: Counterscreen assay for antagonists of the orexin 1 receptor (OX1R; HCRTR1): Homogeneous Time Resolved Fluorescence (HTRF)-based cell-based dose response assay for antagonists of the orexin 2 receptor (OX2R; HCRTR2), run by assay provider.; assay type: functional
T3 sequence (O43614 whole entry): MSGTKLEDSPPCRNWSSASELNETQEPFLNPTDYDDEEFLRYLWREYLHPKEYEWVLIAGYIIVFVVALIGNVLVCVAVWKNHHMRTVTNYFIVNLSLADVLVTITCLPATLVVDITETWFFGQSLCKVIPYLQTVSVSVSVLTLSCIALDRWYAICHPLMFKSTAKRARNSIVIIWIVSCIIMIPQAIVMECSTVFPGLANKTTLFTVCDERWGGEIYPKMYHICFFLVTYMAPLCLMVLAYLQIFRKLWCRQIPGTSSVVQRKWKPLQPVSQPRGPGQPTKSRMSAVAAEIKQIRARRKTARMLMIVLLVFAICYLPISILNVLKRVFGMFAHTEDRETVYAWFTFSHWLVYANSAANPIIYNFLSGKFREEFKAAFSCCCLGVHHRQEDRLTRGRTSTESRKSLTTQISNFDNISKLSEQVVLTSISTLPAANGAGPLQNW

[8] = target: T3, Orexin receptor type 2; assay: Counterscreen assay for antagonists of the orexin 1 receptor (OX1R; HCRTR1): Fluorescence-based cell-based dose response assay for antagonists of the orexin 2 receptor (OX2R; HCRTR2), run by assay provider.; assay type: functional
[9] = as §1, with “Fluorescence-based” for “Homogeneous time resolved fluorescence (HTRF)-based”, “cell-based high throughput” for “cell-based”, “CHO” for “CHO-K1”; assay type: functional
[10] = inhibitors of firefly luciferase expression or activity, dose response, H4 neuroglioma cells, luminescence (AID 1990); assay type: functional, cell-based
[11] = Luminescence Cell-Based Dose Response HTS to Identify Inhibitors of 5'UTR Stem-Loop Driven Prion Protein mRNA Translation in H4 Neuroglioblastoma Cells. [Related pubchem assays: 1827 (Project Summary), 1813 (Primary HTS)]; assay type: functional
[12] = target: Cytochrome P450 2C9 (Homo sapiens, UniProt P11712)
Chain of Cytochrome P450 2C9 (P11712 whole entry): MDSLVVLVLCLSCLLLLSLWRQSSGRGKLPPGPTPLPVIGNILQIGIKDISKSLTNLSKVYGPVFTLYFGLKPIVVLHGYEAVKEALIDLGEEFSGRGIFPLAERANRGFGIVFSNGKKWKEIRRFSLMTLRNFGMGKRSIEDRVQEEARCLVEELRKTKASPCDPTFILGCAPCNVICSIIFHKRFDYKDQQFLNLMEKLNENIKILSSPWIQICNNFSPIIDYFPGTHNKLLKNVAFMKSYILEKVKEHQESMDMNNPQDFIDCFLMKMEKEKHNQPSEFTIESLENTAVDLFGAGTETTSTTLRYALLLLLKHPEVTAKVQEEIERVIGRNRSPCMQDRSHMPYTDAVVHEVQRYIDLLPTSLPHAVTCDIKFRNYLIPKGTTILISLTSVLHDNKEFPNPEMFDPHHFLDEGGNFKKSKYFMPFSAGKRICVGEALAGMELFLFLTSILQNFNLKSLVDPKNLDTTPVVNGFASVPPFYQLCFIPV

[13] = miR-122 activators in hepatoma reporter cells, dose response, cell-based, Huh7 psiCHECK-miR122, Renilla luciferase, cherry-picked (AID 651956); assay type: functional;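 further: huh7 hepatoma cells stably carrying a psiCHECK-2 miR-122 sensor plasmid; renilla luciferase signal reporting endogenous miR-122 activity after 48 h compound exposure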
[14] = target: Cytochrome P450 2C19 (Homo sapiens, UniProt P33261); assay: Cytochrome panel assay with activity outcomes. Panel member name: p450-cyp2c19 Compounds with AC50 equal or less than 10 uM are considered active; assay type: functional; conditions: read-out: AC50
Chain of Cytochrome P450 2C19 (P33261 whole entry): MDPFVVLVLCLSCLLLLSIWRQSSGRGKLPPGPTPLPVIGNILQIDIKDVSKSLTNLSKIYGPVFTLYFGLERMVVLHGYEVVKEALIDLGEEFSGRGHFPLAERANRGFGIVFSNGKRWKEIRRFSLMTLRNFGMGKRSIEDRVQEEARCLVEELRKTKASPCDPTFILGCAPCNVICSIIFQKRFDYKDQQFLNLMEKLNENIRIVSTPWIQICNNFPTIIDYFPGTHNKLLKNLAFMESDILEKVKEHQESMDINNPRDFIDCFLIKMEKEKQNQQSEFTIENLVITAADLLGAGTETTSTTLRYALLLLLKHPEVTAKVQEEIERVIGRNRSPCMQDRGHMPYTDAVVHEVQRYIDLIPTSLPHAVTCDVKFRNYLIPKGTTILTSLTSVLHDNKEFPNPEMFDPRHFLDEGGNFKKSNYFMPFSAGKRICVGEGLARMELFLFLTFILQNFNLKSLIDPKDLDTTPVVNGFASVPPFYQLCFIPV

[15] = inhibitors of SNCA 5'UTR-driven reporter translation, confirmation, H4 neuroglioma cells, luminescence (AID 1988); assay type: functional, cell-based

Chain of Ras and Rab interactor 1/Tyrosine-protein kinase ABL1 (P00519 whole entry): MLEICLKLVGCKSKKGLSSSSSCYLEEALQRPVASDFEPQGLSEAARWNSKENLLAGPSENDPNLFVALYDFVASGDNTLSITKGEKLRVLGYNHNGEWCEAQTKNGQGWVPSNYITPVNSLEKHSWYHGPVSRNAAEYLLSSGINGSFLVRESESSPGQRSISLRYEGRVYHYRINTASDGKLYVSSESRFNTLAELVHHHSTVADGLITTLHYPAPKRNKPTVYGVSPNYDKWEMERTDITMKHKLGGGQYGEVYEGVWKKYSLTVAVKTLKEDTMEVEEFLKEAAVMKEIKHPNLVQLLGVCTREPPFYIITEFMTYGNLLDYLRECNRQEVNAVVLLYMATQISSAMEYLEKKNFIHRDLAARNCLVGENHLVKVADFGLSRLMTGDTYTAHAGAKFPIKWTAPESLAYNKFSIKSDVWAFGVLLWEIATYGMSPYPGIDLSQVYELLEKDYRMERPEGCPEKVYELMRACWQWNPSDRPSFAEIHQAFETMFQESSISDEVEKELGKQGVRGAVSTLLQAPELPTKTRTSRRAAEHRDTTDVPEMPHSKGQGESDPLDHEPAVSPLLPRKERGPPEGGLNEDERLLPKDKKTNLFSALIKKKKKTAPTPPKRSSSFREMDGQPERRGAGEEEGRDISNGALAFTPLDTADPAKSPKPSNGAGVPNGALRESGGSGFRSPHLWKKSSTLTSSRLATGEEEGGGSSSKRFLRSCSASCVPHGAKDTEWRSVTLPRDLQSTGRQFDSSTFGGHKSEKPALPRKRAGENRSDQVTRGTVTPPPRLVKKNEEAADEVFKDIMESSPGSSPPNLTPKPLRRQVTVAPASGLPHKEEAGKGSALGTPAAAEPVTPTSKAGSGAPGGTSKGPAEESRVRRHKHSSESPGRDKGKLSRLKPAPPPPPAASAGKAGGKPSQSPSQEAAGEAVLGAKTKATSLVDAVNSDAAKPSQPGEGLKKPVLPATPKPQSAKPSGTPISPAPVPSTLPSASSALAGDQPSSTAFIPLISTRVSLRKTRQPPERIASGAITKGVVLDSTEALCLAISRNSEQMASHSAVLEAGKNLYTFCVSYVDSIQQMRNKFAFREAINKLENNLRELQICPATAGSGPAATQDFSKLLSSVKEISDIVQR
Chain of Ras and Rab interactor 1/Tyrosine-protein kinase ABL1 (Q13671 whole entry): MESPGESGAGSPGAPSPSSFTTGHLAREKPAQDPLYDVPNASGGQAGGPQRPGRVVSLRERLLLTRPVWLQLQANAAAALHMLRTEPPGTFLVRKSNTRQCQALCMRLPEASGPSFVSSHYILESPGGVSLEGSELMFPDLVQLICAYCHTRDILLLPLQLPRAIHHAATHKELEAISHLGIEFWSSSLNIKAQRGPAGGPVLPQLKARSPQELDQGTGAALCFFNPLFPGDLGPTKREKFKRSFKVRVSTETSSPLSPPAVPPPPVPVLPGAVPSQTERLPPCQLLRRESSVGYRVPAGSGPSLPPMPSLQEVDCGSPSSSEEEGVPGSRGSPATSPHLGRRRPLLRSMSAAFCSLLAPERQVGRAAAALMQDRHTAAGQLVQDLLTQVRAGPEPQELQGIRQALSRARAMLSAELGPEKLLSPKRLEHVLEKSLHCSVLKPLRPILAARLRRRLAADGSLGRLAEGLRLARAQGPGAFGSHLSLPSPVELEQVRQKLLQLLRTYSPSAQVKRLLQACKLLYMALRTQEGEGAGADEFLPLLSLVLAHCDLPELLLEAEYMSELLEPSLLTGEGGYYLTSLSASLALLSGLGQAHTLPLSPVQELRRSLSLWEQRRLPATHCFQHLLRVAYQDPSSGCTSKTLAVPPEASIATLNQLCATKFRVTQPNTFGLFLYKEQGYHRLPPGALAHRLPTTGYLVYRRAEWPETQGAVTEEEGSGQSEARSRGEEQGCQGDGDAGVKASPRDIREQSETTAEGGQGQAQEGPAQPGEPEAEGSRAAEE

For `CC(C)n1cc(CN2CCC(C(=O)Nc3cccc(-c4cscn4)c3)CC2)cn1`, the IC50 [1] was 54.5 µM (inactive).

For `COCCCn1c(=O)c2ccccc2n2c(S)nnc12`, the IC50 [2] was 9.15 µM (active) and the EC50 [3] was > 104 µM (inactive).

In the case of `CN(C)/C=C1/Oc2c(ccc3ccccc23)C1=O`, the IC50 [4] is reported as 2.06 µM (active), the IC50 [5] is reported as 33.3 µM (inactive) and the IC50 [6] is reported as > 66.2 µM (inactive). For the same compound, the IC50 [7] was 18.3 µM (inactive), the IC50 [8] was > 88.8 µM (inactive) and the IC50 [9] was > 49.7 µM (inactive).

With `CN(C)CCNc1ncnc2c1sc1nc(N3CCOCC3)c3c(c12)CC(C)(C)SC3` the EC50 [10] was 8.43 µM (active), the EC50 [11] was 23.9 µM (active) and the IC50 [1] was 13.7 µM (inactive). The AC50 [12] was 25.1 µM (inconclusive), the AC50 [13] was 12.9 µM (active) and the AC50 [14] was 31.6 µM (inconclusive). The EC50 [15] was 8.17 µM (active).
